Results published in patent EP4248959A1, “PREPARATION FOR REDUCTION OF PATHOLOGICAL IRON OVERLOAD” (Dr. Franz Köhler Chemie GmbH, priority 2022, dated 2023).
Entries after “also recorded” stand apart in the source; their conditions may differ.

Assays:
rat = experiment: Acute toxicology following intravenous administration of a single dose; assay type: in vivo
Protocol: 1. Acute toxicology of 2,3-dimethoxy-N-methylbenzhydroxamic acid (XIII) following intra venous administration of a single dose.
In the preliminary phase, 1 male and 1 female rat were dosed at 200 mg/kg and observed for a period of 7 days. […] A further group of 1 male and 1 female animals was dosed at a dose level of 300 mg/kg. […] Recovery occurred approximately 4 hours after dosing.
In the main phase of the study, 1 group of 5 male and 5 female animals was dosed at 300 mg/kg and observed for a period of 14 days. […] Recovery occurred by Day 3.

CHO-K1 cells = experiment: In vitro micronucleus assay (cytokinesis-block, OECD 487, GLP) with and without S9 metabolic activation; assay type: cell-based; details: for concentration-related increase in frequency of MN: Chi-square test for trend; for micronucleus frequency / MN formation compared with the concurrent negative control: with and without metabolic activation, Chi-square test with Yates' correction
From the text: The in vitro Micronucleus Assay (MNA) is a mutagenic test system for the detection of chemicals that induce the formation of small membrane-bound DNA fragments (micronuclei (MN)) in the cytoplasm of interphase cells. The MNA, used for regulatory purposes measures formation of chromosomal changes following DNA damage induced by the compounds under test, and is used to predict the genotoxic potential of pharmaceuticals, industrial chemicals, food additives and cosmetic ingredients.
MN originate from chromosome fragments or whole chromosomes that are not included in the main daughter nuclei during nuclear division. They reflect chromosome damage and may thus provide a marker of genotoxicity and even early-stage carcinogenesis. The most commonly used method in mammalian cells is the cytokinesis-block micronucleus (CBMN) assay. In the CBMN assay, MN are scored after a single cell division using binucleated cultured cells (accumulated using cytochalasin B) to eliminate the confounding effect of altered cell division kinetics on the MN index.
The formation of MN is a consequence of chromosomal breakage and/or spindle-fiber dysfunction induced by clastogens and/or aneuploidogens.
DMSO controls were run concurrently for each experiment.
Micronucleus frequency was analyzed in at least 2000 binucleate cells per concentration and control.
In order to assess genotoxic potential. […] Statistical analysis of the MN frequency and binucleate cells with MN was performed using the Chi-square test with Yates' correction. To examine the dose-response relationship in frequencies of the micronuclei Chi-square test for trend was performed.

[1] = both, rat, in vivo, iv, 300 mg/kg
[2] = rat, single i.v. dose of 300 mg/kg body weight

Compound | recovery (rat; [1]) [days] | recovery after dosing (rat; [1]) | mortality (rat; main phase, 5 male and 5 female rats, 300 mg/kg i.v. single dose, observed 14 days) | mortality (rat; preliminary phase, 1 male and 1 female rat, 200 mg/kg i.v. single dose, observed 7 days) | necropsy examination (rat; rat, in vivo) | clinical signs (rat; rat, in vivo, iv, 200 mg/kg) | tolerability of dose level (rat; [2]) | toxic effect (overall conclusion) (rat; [2]) | dose-dependent genetic toxicity (summary) (CHO-K1 cells) | genotoxicity (MNA test result) (CHO-K1 cells; +S9 short, -S9 short and -S9 extended treatment) | concentration-related increase in frequency of MN (CHO-K1 cells) | micronucleus frequency / MN formation compared with the concurrent negative control (CHO-K1 cells)
COc1cccc(C(=O)N(C)O)c1OC [XIII, 2,3-dimethoxy-N-methylbenzhydroxamic acid] | ≤ 3 | approximately 4 hours | No mortality occurred | No mortality | No abnormalities | no clinical signs | reasonably tolerated | slight toxic effect |  |  |  | 
COc1ccc(C(=O)N(C)O)cc1OC [LK 614, 3,4-dimethoxy-N-methylbenzhydroxamic acid] |  |  |  |  |  |  |  |  | did not produce dose-dependent genetic toxicity | no genotoxicity | not observed; also recorded: no dose-related increase | did not exhibit statistically significant increase; also recorded: None of tested concentrations of test item, LK 614, exhibits a statistically significant increase
O=P1(N(CCCl)CCCl)NCCCO1 (centres unmarked) [CP, cyclophosphamide, reference compound] |  |  |  |  |  |  |  |  |  |  | increased | significantly induced
